According to patent US20230340011A1 (Asteroid Therapeutics, priority 2022, published 2023):
pEC50: −log10 of the molar value.

Molecular target: LXRβ (Homo sapiens (Human), UniProt P55055)
Test: In vitro assay LXRβ: PathHunter NHR CHO cells, LXRβ / Steroid Receptor Co-activator Peptide enzyme fragment complementation
Format: cell-based
Details: PathHunter NHR CHO cells, full-length human LXRβ and SRCP, chemiluminescent signal; read-out: LXRβ PPI
Protocol: PathHunter NHR CHO cells stably transfected with tagged full-length human LXRβ and a nuclear fusion protein containing Steroid Receptor Co-activator Peptide (SRCP). The full-length human LXRβ was tagged with the ProLink™ component of the DiscoverX Enzyme Fragment Complementation (EFC) system and the SRCP domain is fused to the enzyme acceptor component (EA) expressed in the nucleus. Cells were seeded in a total volume of 20 μL into white walled, 384-well microplates and incubated at 37° C. overnight prior to testing. Assay media contained charcoal-dextran filtered serum to reduce the level of hormones present. Final assay vehicle concentration was 1%. […] Microplates were read following signal generation with a PerkinElmer Envision instrument for chemiluminescent signal detection.

Chain of LXRβ (P55055 whole entry, the tested form may be a part): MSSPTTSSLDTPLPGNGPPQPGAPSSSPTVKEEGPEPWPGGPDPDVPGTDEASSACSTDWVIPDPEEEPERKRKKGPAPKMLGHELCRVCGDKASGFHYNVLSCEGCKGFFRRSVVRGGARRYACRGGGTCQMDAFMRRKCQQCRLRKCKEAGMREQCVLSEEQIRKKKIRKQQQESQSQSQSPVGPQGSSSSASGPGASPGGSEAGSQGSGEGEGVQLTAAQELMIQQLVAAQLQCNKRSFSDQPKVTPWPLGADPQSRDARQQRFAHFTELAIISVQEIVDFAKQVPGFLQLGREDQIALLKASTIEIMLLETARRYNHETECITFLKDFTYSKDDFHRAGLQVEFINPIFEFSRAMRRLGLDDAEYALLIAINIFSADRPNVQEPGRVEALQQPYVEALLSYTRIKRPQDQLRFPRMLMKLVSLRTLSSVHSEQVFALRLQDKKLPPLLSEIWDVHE

SMILES	pEC50
C[C@@H](NC(=O)C(=O)N(C)C)[C@H]1CC[C@H]2[C@@H]3CC=C4C[C@@H](O)CC[C@]4(C)[C@H]3CC[C@]12C (single isomer, unassigned) [Example 119]	< 5.00
C[C@H](CCC(=O)N1CCC(C)(O)CC1)[C@H]1CC[C@H]2[C@@H]3CC=C4C[C@@H](O)CC[C@]4(C)[C@H]3CC[C@]12C [Example 6, (R)-4-((3S,8S,9S,10R,13R,14S,17R)-3-hydroxy-10,13-dimethyl-2,3,4,7,8,9,10,11,12,13,14,15,16,17-tetradecahydro-1H-cyclopenta[a]phenanthren-17-yl)-1-(4-hydroxy-4-methylpiperidin-1-yl)pentan-1-one]	6.00 to 6.60
CCN(OC)C(=O)CC[C@@H](C)[C@H]1CC[C@H]2[C@@H]3CC=C4C[C@@H](O)CC[C@]4(C)[C@H]3CC[C@]12C [Example 11, (R)—N-ethyl-4-((3S,8S,9S,10R,13R,14S,17R)-3-hydroxy-10,13-dimethyl-2,3,4,7,8,9,10,11,12,13,14,15,16,17-tetradecahydro-1H-cyclopenta[a]phenanthren-17-yl)-N-methoxypentanamide]	6.00 to 6.60
CCCON(C)C(=O)CC[C@@H](C)[C@H]1CC[C@H]2[C@@H]3CC=C4C[C@@H](O)CC[C@]4(C)[C@H]3CC[C@]12C [Example 12, (R)-4-((3S,8S,9S,10R,13R,14S,17R)-3-hydroxy-10,13-dimethyl-2,3,4,7,8,9,10,11,12,13,14,15,16,17-tetradecahydro-1H-cyclopenta[a]phenanthren-17-yl)-N-methyl-N-propoxypentanamide]	6.00 to 6.60
CON(C(=O)CC[C@@H](C)[C@H]1CC[C@H]2[C@@H]3CC=C4C[C@@H](O)CC[C@]4(C)[C@H]3CC[C@]12C)C(C)C [Example 15, (R)-4-((3S,8S,9S,10R,13R,14S,17R)-3-hydroxy-10,13-dimethyl-2,3,4,7,8,9,10,11,12,13,14,15,16,17-tetradecahydro-1H-cyclopenta[a]phenanthren-17-yl)-N-isopropyl-N-methoxypentanamide]	5.00 to 6.00
CCCCN(OC)C(=O)CC[C@@H](C)[C@H]1CC[C@H]2[C@@H]3CC=C4C[C@@H](O)CC[C@]4(C)[C@H]3CC[C@]12C [Example 17, (R)—N-butyl-4-((3S,8S,9S,10R,13R,14S,17R)-3-hydroxy-10,13-dimethyl-2,3,4,7,8,9,10,11,12,13,14,15,16,17-tetradecahydro-1H-cyclopenta[a]phenanthren-17-yl)-N-methoxypentanamide]	5.00 to 6.00
COCCON(C)C(=O)CC[C@@H](C)[C@H]1CC[C@H]2[C@@H]3CC=C4C[C@@H](O)CC[C@]4(C)[C@H]3CC[C@]12C [Example 27, (R)-4-((3S,8S,9S,10R,13R,14S,17R)-3-hydroxy-10,13-dimethyl-2,3,4,7,8,9,10,11,12,13,14,15,16,17-tetradecahydro-1H-cyclopenta[a]phenanthren-17-yl)-N-(2-methoxyethoxy)-N-methylpentanamide]	5.00 to 6.00
C[C@H](CCC(=O)N(C)OCCCO)[C@H]1CC[C@H]2[C@@H]3CC=C4C[C@@H](O)CC[C@]4(C)[C@H]3CC[C@]12C [Example 30, (R)-4-((3S,8S,9S,10R,13R,14S,17R)-3-hydroxy-10,13-dimethyl-2,3,4,7,8,9,10,11,12,13,14,15,16,17-tetradecahydro-1H-cyclopenta[a]phenanthren-17-yl)-N-(3-hydroxypropoxy)-N-methylpentanamide]	5.00 to 6.00
COCCCON(C)C(=O)CC[C@@H](C)[C@H]1CC[C@H]2[C@@H]3CC=C4C[C@@H](O)CC[C@]4(C)[C@H]3CC[C@]12C [Example 31, (R)-4-((3S,8S,9S,10R,13R,14S,17R)-3-hydroxy-10,13-dimethyl-2,3,4,7,8,9,10,11,12,13,14,15,16,17-tetradecahydro-1H-cyclopenta[a]phenanthren-17-yl)-N-(3-methoxypropoxy)-N-methylpentanamide]	5.00 to 6.00
